SMILES strings stand for the structures. Some results are limits rather than exact numbers.

Chain of STING (Q86WV6 whole entry R71H/G230A/H232R/R293Q): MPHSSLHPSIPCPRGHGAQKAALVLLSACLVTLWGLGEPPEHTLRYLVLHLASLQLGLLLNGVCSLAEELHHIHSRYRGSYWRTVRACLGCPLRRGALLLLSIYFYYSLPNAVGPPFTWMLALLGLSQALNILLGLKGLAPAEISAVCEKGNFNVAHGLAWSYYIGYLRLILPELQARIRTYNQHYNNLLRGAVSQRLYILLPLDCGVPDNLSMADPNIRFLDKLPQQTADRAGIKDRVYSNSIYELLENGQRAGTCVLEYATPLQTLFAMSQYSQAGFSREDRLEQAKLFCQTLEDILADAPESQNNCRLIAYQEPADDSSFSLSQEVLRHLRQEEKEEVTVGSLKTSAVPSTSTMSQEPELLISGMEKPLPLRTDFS

One test addresses STING (Homo sapiens, UniProt Q86WV6, G230A/H232R/R293Q/R71H). As to the kind of experiment: STING reporter assay: THP1-Dual KO-IFNAR2 cells stimulated with 2′3′cGAMP, luciferase reporter activity. The format is cell-based. The settings on record: 15 μM 2′3′cGAMP, 24h, class symbols. An outline of the steps:
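THP1-Dual KO-IFNAR2 cells (2×10E6 cells/mL) treated with compounds at 0.0017-100 μM, then stimulated with 2′3′cGAMP (15 μM final) delivered by Lipofectamine 2000; 24 h at 37° C. Supernatant luciferase read by QUANTI-Luc Plus luminescence; EC50 from dose-response.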
A general note: In a reporter assay the amount or activity of a reporter protein is the signal.
Molecule `N#Cc1cc2ccc(NC(=O)Nc3ccc(C(F)(F)F)cc3)cc2[nH]1` [Compound 255] yielded an EC50 of 5 to 100 µM.
Still for that read-out and setting: next, `O=C(Nc1ccc(OC2CC(F)(F)C2)nc1)Nc1ccc2cc[nH]c2c1` [Compound 248]: 0.2 to 1 µM.
`O=C(Nc1ccc(C(F)(F)F)cc1)Nc1cc(-c2ccccc2)c2cc[nH]c2c1` [Compound 169] gave an EC50 of 1 to 5 µM.
Still for that read-out and setting: next, `O=C(Nc1ccc2cc[nH]c2c1)Nc1ccc(C(F)(F)F)cn1` [Compound 269]: 0.2 to 1 µM; `O=C(Nc1ccc(C(F)(F)F)cc1)Nc1ccc2[nH]ccc2c1` [Compound 102]: 1 to 5 µM.
On the same count and under the same terms, the same measure for `FC(F)(F)c1ccc2cnc(Nc3ccc4cc[nH]c4c3)cc2c1` [Compound 388]: 1 to 5 µM.
The same measure, in the same setting: next, `FC(F)(F)c1cc(Nc2ccc3cc[nH]c3c2)nc(Nc2ccc3cc[nH]c3c2)c1` [Compound 570, N2,N6-bis(1H-indol-6-yl)-4-(trifluoromethyl)pyridine-2,6-diamine]: 0.2 to 1 µM; `COc1ccc2ccc(Nc3ccc4cc[nH]c4c3)nc2c1` [Compound 587, N-(1H-indol-6-yl)-7-methoxyquinolin-2-amine]: 1 to 5 µM; `CCCCc1ccc(NC(=O)Nc2ccc3[nH]ccc3c2)cc1` [Compound 378]: 1 to 5 µM.
Take `FC(F)(F)c1ccc2ccc(Nc3ccc4cc[nH]c4c3)nc2c1` [Compound 381]: the EC50 lay in the range of 0.2 to 1 µM.
Same read-out and setting: next, `CCCCC1CCC(NC(=O)Nc2ccc3cc[nH]c3c2)CC1` (centres unmarked) [Compound 271]: 0.2 to 1 µM.
Take `CN(C(=O)Nc1ccc(C(F)(F)F)cc1)c1ccc2[nH]ccc2c1` [Compound 376]: the EC50 lay within 5 to 100 µM.
Turning to `FC(F)(F)c1cc(Cl)cc2nc(Nc3ccc4cc[nH]c4c3)ccc12` [Compound 563], the EC50 was in the range of 0.2 to 1 µM.
Still for that read-out and setting: next, `O=C(Nc1cc(F)cc(C(F)(F)F)c1)Nc1cc(Cl)c2cc[nH]c2c1` [Compound 153]: 0.2 to 1 µM; `O=C(Nc1ccc(C(F)(F)F)cc1)Nc1cc2[nH]ccc2cc1F` [Compound 262]: 5 to 100 µM; `O=C(NCCOc1cccc(Br)c1)Nc1ccc2cc[nH]c2c1` [Compound 175]: 1 to 5 µM.
On the same count and under the same terms, next, `O=C(NCc1cc(Cl)cc(C(F)(F)F)c1)Nc1ccc2c(F)c[nH]c2c1` [Compound 538]: 5 to 100 µM; `Clc1ccc2ccc(Nc3ccc4cc[nH]c4c3)nc2c1` [Compound 589, 7-chloro-N-(1H-indol-6-yl)quinolin-2-amine]: 0.2 to 1 µM.
On the same count and under the same terms, next, `O=C(NCc1cc(Cl)cc(C(F)(F)F)c1)Nc1cc(Cl)c2cc[nH]c2c1` [Compound 536]: 0.2 to 1 µM.
As to `O=C(Nc1ccc(C2CC(F)(F)C2)c(F)c1)Nc1ccc2cc[nH]c2c1` [Compound 240], the EC50 was in the range of 0.2 to 1 µM.
On the same count and under the same terms, next, `O=C(NCCOc1cccnc1)Nc1ccc2cc[nH]c2c1` [Compound 519]: 5 to 100 µM.
Same read-out and setting: next, `CC(C)c1ccc(NC(=O)Nc2ccc3cc[nH]c3c2)cc1` [Compound 234]: 0.2 to 1 µM; `CN(C)C(=O)c1cc(NC(=O)Nc2ccc(C(F)(F)F)cc2)cc2[nH]ccc12` [Compound 547]: 5 to 100 µM.
The same measure, in the same setting: the same measure for `O=C(NCCc1ccccc1Cl)Nc1ccc2cc[nH]c2c1` [Compound 211]: 1 to 5 µM.
Molecule `CC(C)(C)OC(=O)N1CCC(c2ccnc(Nc3ccc4cc[nH]c4c3)n2)CC1` [Compound 429, tert-butyl4-(2-((1H-indol-6-yl)amino)pyrimidin-4-yl)piperidine-1-carboxylate] had an EC50 of 5 to 100 µM.
Same read-out and setting: next, `O=C(Nc1ccc(Oc2c(F)cccc2F)cc1)Nc1ccc2cc[nH]c2c1` [Compound 160]: 1 to 5 µM.
For the molecule `O=C(Nc1ccc(C(F)(F)F)cc1)Nc1cc(Cl)c2c(F)c[nH]c2c1` [Compound 518], the EC50 was 0.04 to 0.2 µM.
Still for that read-out and setting: the same measure for `Cc1cc(Nc2ccc3ccc(Cl)cc3n2)cc2[nH]ccc12` [Compound 387]: 1 to 5 µM; for `O=C(Nc1ccc(C(F)(F)F)cc1)Nc1ccc2[nH]cc(-c3cn[nH]c3)c2c1` [Compound 345]: 5 to 100 µM; for `Cc1ccccc1CCNC(=O)Nc1ccc2cc[nH]c2c1` [Compound 212]: 1 to 5 µM.
Molecule `O=c1c(Nc2ccc(C(F)(F)F)cc2)c(Nc2ccc3[nH]ccc3c2)c1=O` [Compound 619] showed an EC50 of 1 to 5 µM.
The same measure, in the same setting: next, `O=C(Nc1cnc(N2CC(F)(F)C2)c(Cl)c1)Nc1ccc2c(F)c[nH]c2c1` [Compound 514]: 0.2 to 1 µM; `COc1ccc2c(Cl)cc(Nc3ccc4cc[nH]c4c3)nc2c1` [Compound 588, 4-chloro-N-(1H-indol-6-yl)-7-methoxyquinolin-2-amine]: 1 to 5 µM; `O=C(Nc1cnc(N2CC(F)(F)C2)c(F)c1)Nc1cc(Cl)c2cc[nH]c2c1` [Compound 516]: 0.2 to 1 µM.
Consider `CCCCCNC(=O)Nc1ccc2cc[nH]c2c1` [Compound 188], for which the EC50 is 1 to 5 µM.
Still for that read-out and setting: next, `O=C(Nc1ccc(Cl)c(F)c1)Nc1ccc2cc[nH]c2c1` [Compound 226]: 0.2 to 1 µM.

The test is the same for the next values; noted with them: 15 μM 2′3′cGAMP, 24h, numeric bounds.
As to `O=C(Nc1cnc2cc(C(F)(F)F)ccc2c1)Nc1ccc2[nH]ccc2c1` [Compound 285], the EC50 was more than 30 µM.
For the molecule `CCCCc1ccc(Nc2c(Nc3ccc4cc[nH]c4c3)c(=O)c2=O)cc1` [Compound 113], the EC50 was more than 14.8 µM.
On the same count and under the same terms, the same measure for `Cc1ccc(CNC(=O)Nc2ccc3[nH]ccc3c2)cc1` [Compound 339]: more than 30 µM; for `CCc1ccccc1NC(=O)Nc1ccc2[nH]ccc2c1` [Compound 363, 1-(2-ethylphenyl)-3-(1H-indol-5-yl)urea]: more than 30 µM.
On the same count and under the same terms, next, `COC1CN(c2ncc(NC(=O)Nc3cc(Cl)c4cc[nH]c4c3)cc2C)C1` [Compound 498]: more than 30 µM; `CCCCCNC(=O)Nc1ccc2[nH]ccc2c1` [Compound 328]: more than 30 µM; `CC(=O)c1ccc2ccc(Nc3ccc4cc[nH]c4c3)nc2c1` [Compound 575, 1-{2-[(1H-indol-6-yl)amino]quinolin-7-yl}ethan-1-one]: more than 30 µM.
On the same count and under the same terms, next, `Cc1ccc(CNC(=O)Nc2ccc3cc[nH]c3c2)cc1C` [Compound 223]: more than 30 µM.
Turning to `Cc1cc(NC(=O)Nc2ccc(C(F)(F)F)cc2)cc2c1ccn2-c1cn[nH]c1` [Compound 156], the EC50 is more than 30 µM.
For the molecule `CC(C)c1ccc(NC(=O)Nc2ccc3[nH]ccc3c2)cc1` [Compound 347], the EC50 is more than 30 µM.
As to `c1cc(Nc2ccc3cc[nH]c3c2)nc(N2CCCC2)c1` [Compound 397, N-(6-(pyrrolidin-1-yl)pyridin-2-yl)-1H-indol-6-amine], the EC50 is more than 30 µM.
Same read-out and setting: next, `CCOc1ccc(-c2cc(NC(=O)Nc3ccc4[nH]ccc4c3)on2)cc1` [Compound 297]: more than 30 µM; `CCNc1cccc(Nc2ccc3cc[nH]c3c2)n1` [Compound 398, N2-ethyl-N6-(1H-indol-6-yl)pyridine-2,6-diamine]: more than 30 µM; `N#Cc1c[nH]c2ccc(NC(=O)Nc3ccc(C(F)(F)F)cc3)cc12` [Compound 373]: more than 100 µM.
The molecule `FC(F)(F)c1ccc2cnc(Nc3ccc4cc[nH]c4c3)nc2c1` [Compound 432, N-(1H-indol-6-yl)-7-(trifluoromethyl)quinazol in-2-amine] displayed an EC50 of more than 30 µM.
Still for that read-out and setting: the same measure for `O=C(NCc1ccc(F)c(F)c1)Nc1ccc2[nH]ccc2c1` [Compound 336]: more than 30 µM.
Same read-out and setting: the same measure for `CCn1cc(CNC(=O)Nc2ccc3cc[nH]c3c2)cn1` [Compound 180]: more than 30 µM; for `O=C(Nc1ccc2cc[nH]c2c1)NC1Cc2ccccc2C1` [Compound 161]: more than 30 µM.
Same read-out and setting: next, `c1cc2nccnc2c(Nc2ccc3cc[nH]c3c2)n1` [Compound 404, N-(1H-indol-6-yl)pyrido[3,4-b]pyrazin-5-amine]: more than 30 µM; `CCCCC1CCC(NC(=O)Nc2ccc3[nH]ccc3c2)CC1` (centres unmarked) [Compound 379]: more than 5 µM.
For `O=C(NCCSCc1c(Cl)cccc1Cl)Nc1ccc2[nH]ccc2c1` [Compound 349], the EC50 is more than 30 µM.
Still for that read-out and setting: the same measure for `O=C(Nc1ccc(S(=O)(=O)N2CCCC2)cc1)Nc1ccc2[nH]ccc2c1` [Compound 284]: more than 30 µM; for `CN(C(=O)Nc1ccc2cc[nH]c2c1)c1ccc(C(F)(F)F)cc1` [Compound 267]: more than 67.1 µM.
Same read-out and setting: the same measure for `O=S(=O)(c1ccc(Nc2ccc3cc[nH]c3c2)nc1)N1CCCC1` [Compound 423, N-(5-(pyrrolidin-1-ylsulfonyl)pyridin-2-yl)-1H-indol-6-amine]: more than 30 µM; for `N#Cc1ccc(NC(=O)Nc2ccc3[nH]ccc3c2)cc1` [Compound 361]: more than 30 µM.
Same read-out and setting: next, `Cn1cc(-c2c[nH]c3ccc(NC(=O)Nc4ccc(C(F)(F)F)cc4)cc23)cn1` [Compound 366]: more than 30 µM; `CC(C)(C)c1cc(NC(=O)Nc2ccc3[nH]ccc3c2)on1` [Compound 305]: more than 30 µM; `COc1nc(Nc2ccc3cc[nH]c3c2)ccc1C#N` [Compound 603, 6-[(1H-indol-6-yl)amino]-2-methoxypyridine-3-carbonitrile]: more than 30 µM.
Molecule `O=C(Nc1cccc(S(F)(F)(F)(F)F)c1)Nc1ccc2[nH]ccc2c1` [Compound 346] displayed an EC50 of more than 30 µM.
On the same count and under the same terms, the same measure for `Cc1cc(NC(=O)Nc2ccc3[nH]ccc3c2)ccc1C#N` [Compound 360]: more than 30 µM; for `O=C(NCc1cnccn1)Nc1ccc2[nH]ccc2c1` [Compound 333]: more than 30 µM.
`c1cc2ccc(Nc3ccc(C4CC4)cn3)cc2[nH]1` [Compound 411, N-(5-cyclopropylpyridin-2-yl)-1H-indol-6-amine] had an EC50 of more than 30 µM.
In turn, `CCS(=O)(=O)c1ccc(CNC(=O)Nc2ccc3[nH]ccc3c2)cn1` [Compound 300] gave a 50% effective concentration (EC50) of more than 30 µM.
Turning to `CCc1ccc(NC(=O)Nc2ccc3c(NC(=O)Nc4ccc(CC)cc4)c[nH]c3c2)cc1` [Compound 261], the EC50 is more than 100 µM.
The same measure, in the same setting: the same measure for `Cc1c(NC(=O)Nc2ccc(C(F)(F)F)cc2)ccc2c(C#N)c[nH]c12` [Compound 526]: more than 7.38 µM.

As usually defined, the EC50 is the concentration giving half of the maximal effect. The low end stands for greater potency, the high end for weaker potency.

The values above are taken from patent publication US20230092163A1, “COMPOUNDS AND COMPOSITIONS FOR TREATING CONDITIONS ASSOCIATED WITH STING ACTIVITY” (IFM Due, Inc., priority 2019, published 2023).
